Tests used:
[1] = system: cerebral cortical neurons; test: Protective activity for neuronal cells against iron-induced damage (LDH release); format: cell-based, rat; conditions: 30 μM compound; 50 uM FeSO4, 24 hours; LDH reduction rate vs control
Protocol: From the brains of 17-18 day-old rat embryos, cerebral cortical neurons were isolated and then, cultured at 37° C. for 7-9 days in a 5% CO2 incubator. The cortical cell cultures were washed twice with a minimum essential medium (MEM) to reduce the serum concentration to 0.2% and pre-treated for 30 min with 30 μM of each of test compounds. For the experiments, the test compounds were dissolved in DMSO and diluted in a medium. At this time, the final concentration of DMSO was not allowed to exceed 0.2%. For a control group, only vehicle was applied.
After the pre-treatment with test compounds or vehicle, FeSO4 was added to a final concentration of 50 uM, and the cultures were maintained for 24 hours in a CO2 incubator. During incubation, lactate dehydrogenase (LDH) was released into the medium upon neuronal death by the oxidative toxicity of iron. The extent of neuronal damage was assessed by measuring the amount of LDH released into the media. The protective effect of the compounds of interest on neurons was evaluated by calculating the LDH reduction rate of treatment group compared with that of the control group.

[2] = system: ischemic myocardium damage model of anesthetized rats; test: Cardioprotective activity in ischemic heart models of rats (LAD occlusion/reperfusion, anesthetized rats); format: in vivo, rat; conditions: rat in vivo, 0.3 mg/kg i.v.; for AAR/LV (%): area at risk per left ventricle; for IZ/AAR (%): myocardial infarction rate to area at risk, 45 min occlusion, 90 min reperfusion
Protocol: After trachetomy, the rats were rendered to respire artificially at a rate of 60/min with a stroke volume of 10 ml/kg. Cannulars were inserted into the fermoral vein and the fermoral artery and used for drug administration and blood pressure measurement, respectively.
In the ischemic myocardial injury models, the body temperature has an important influence on the results. To avoid the change in the body temperature, a body temperature measuring probe was inserted into the rectum of each rat and the body temperature was constantly kept at 37° C. with the aid of a homeothermic blanket control unit.
Afterwards, during testing, a continuous measurement was made of the mean arterial blood pressures and heart rates from the rats. For the measurement of the blood pressure, a pressure transducer, such as that manufactured by Grass Ins., MA, U.S.A., identified as Model Statham P23XL, was used.
The heart rate was measured by a tachometer, such as that manufactured by Gould Inc., Ohio, U.S.A., identified as Biotachometer. In addition, all of the changes occurring were continuously recorded through the Gould 2000 chart recorder, manufactured by Gould Inc.
The left coronary artery was occluded according to the Selye H. method as follows. The rats underwent a left thoracotomy operation for partial opening of the chest and the right-side chest was pressurized by the middle finger of the left hand to push the heart out. Immediately after the left anterior descending coronary artery hereinafter referred to as (LAD) was carefully stitched using a suture needle with 5-0 silk ligature, the heart was then repositioned in the thoracic cavity while both ends of the ligature were situated outside. The opposite ligature ends were passed through a PE tube (PE100, 2.5 cm) and allowed to stand loose for 20 min for stabilization. Via the cannula inserted into the femoral vein, vehicles or drugs were administered into the rats which were rendered to stand for 30 min in order to sufficiently elicit the efficacies of the drugs.
Next, the PE tube which had the doubled strands of the ligature passed therethrough was pushed toward the heart and then, set upright by tightly pulling end regions of the ligature with a hemostatic pincette while pressing the coronary artery.
After the reocclusion of the coronary artery in accordance with the above procedure, the rats were administered with 2 ml of a 1% Evans blue through an intravenous route. Subsequently, an excess of pentobarbital was intravenously injected to kill the rats, after which the heat was removed and then, deprived of the right ventricle and both atria. The left ventricle was cut horizontally to the heart apex into 5 or 6 slices which were weighed. From the surface of each slice, images were input with the aid of a Hi-scope into a computer installed with an image analyzing program (Image Pro Plus). From the images input into the computer, the area of the normal blood stream tissue region which appeared blue in a computer monitor and the area which appeared colorless were measured. The percentage of the colorless area to the total area of each slice was calculated and multiplied by the weight of each slice to determine the area at risk (AAR) of each slice. The AAR obtained from each slice was summed for all slices and the total AAR was divided by the total weight of the left ventricle to yield % AAR, as shown in the following mathematical formula 1:
AAR(%)=(summed AAR for all slices)/(total weight of left ventricle)×100 [Mathematical Formula 1]
During this fixation, 2,3,5-triphenyltetrazolium chloride was reduced into formazan dye by the myocardial dehydrogenase and its cofactor NADH, so that the normal regions of the tissue were colored brick-red. In contrast, the infarct zones of the tissue were deficient in the dehydrogenase and its cofactor, so that no reduction occurred on the 2,3,5-triphenyltetrazolium, allowing the color to remain unchanged.

[3] = system: isolated rat aorta constricted with methoxamine; test: Vasodilation effects on isolated aorta of rats (methoxamine-constricted rings); conditions: isolated rat aorta constricted with methoxamine (3 μM); 50% relaxation
Description: Male Sprague-Dawly rats (350-450 g, obtained from the Experimental Animal Team of the Korea Research Institute of Chemical Technology) were knocked unconscious by hitting the occipital region, sacrificed by cervical dislocation, and underwent thoracotomy. After being quickly removed, the thoracic aorta was deprived of the adipose tissue and cut into aortic rings of 3 mm width. The aorta was lightly rubbed with cotton club soaked in a modified Krebs Henseleit buffer (Physiological Salt Solution, PSS) to remove the inner epithelial layer therefrom.
Thereafter, 3×10^−6 M methoxamine was applied to induce an intensive constriction in the vascular smooth muscle. When the vasoconstriction induced by the methoxamine was reached and maintained to a maximum, test compounds and controls were cumulatively added to the organ baths in concentrations of 1, 3, 10 and 30 μM so as to examine the vasodilation effect.
The change rate of constriction by the addition of the drugs compared to the maximal constriction induced by methoxamine was calculated to plot a concentration-relaxation response curve.

isolated rat hearts = test: Cardioprotective activity in isolated ischemic heart models of rats (Langendorff, global ischemia/reperfusion); conditions: 10 μM; for LDH (U/g): cumulative reperfusion LDH release; for EDP (MmHg): left ventricular end-diastolic pressure after 30 min reperfusion; for LDVP × HR (%): reperfusion double product as % of pretreatment DP, 30 min global ischemia, 30 min reperfusion; for TTC: time to contracture during global ischemia
Protocol: Male Sprague-Dawley rats weighing 300-450 g were anesthetized with sodium pentobarbital (100 mg/kg, i.p.). The tail vein was injected with heparin (1,000 U/kg) and then the trachea was intubated. […] A latex balloon filled with solvent (ethanol: water=1:1 (v/v)) and attached to a metal cannula was placed in the left ventricle through pulmonary vein and connected to a Isotec pressure transducer (H.S.E., Germany) for measurement of left ventricular pressure (LVP). […] Then, baseline contractile function, heart rate (HR), and coronary flow (CF) (extracorporeal electromagnetic flow probe, Narco Bio-System, U.S.A.) were measured. Cardiac contractile function was calculated by subtracting LVEDP from LV peak systolic pressure (LVSP), yielding developed pressure (LVDP). Double product (DP), another important parameter for assessing cardiac performance, was calculated by multiplying HR by LVDP. Throughout the experiment, all these parameters were measured, and calculated before and 10 min after pretreatment with each compound and 30 min after the onset of reperfusion with buffer. Data on reperfusion DP were further expressed as the percentage to pretreatment DP.
We then rendered the hearts globally ischemic by completely shutting off the perfusate for 30 min. Severity of ischemia was determined as the time to contracture (TTC, min) during global ischemia in which the first 5 mmHg increase in EDP was observed. Then, the hearts were reperfused and, 30 min later, contractile function (LVDP, DP) and cumulative reperfusion lactate dehydrogenase (LDH) release were measured. LDH was measured as a sensitive index for loss of cell viability with a kit supplied by Boerhinger Mannheim based on the technique of Wroblewski and LaDue [F. Wroblewski and JS.

in vivo = conditions: SD, rat, po, 1 g/kg
Protocol: In this test six-week old SPF SD rats were used with two rats assigned to each group. […] The dosing volume was 10 ml/kg. […] All survivors at the end of the observation period underwent laparotomy under ether anesthesia and the blood samples were taken from the abdominal aorta for hematological tests and biochemical analysis. After sacrificing the animals, autopsy was performed for macroscopic observation of the organs and tissues. Tissue samples of vital organs from macroscopic legion were removed and fixed in 10% neutral buffered formalin solution, then processed by standard procedures for histopathology and examined under light microscope.

SMILES: CCOC(=O)[C@@H]1Cc2ccccc2N1[C@H]1c2cc([N+](=O)[O-])ccc2O[C@](C)(C(OC)OC)[C@@H]1O [Example 2, 1-[(2S, 3R, 4S)-3,4-dihydro-2-dimethoxymethyl-3-hydroxy-2-methyl-6-nitro-2H-1-benzopyran-4-yl]-(2S)-2,3-dihydro-1H-indole-2-carboxylic acid ethyl ester]
- % Protection [1]: 79%
- AAR/LV (%) [2]: 32.6%
- IZ/AAR (%) [2]: 39.1%
- IC50 [3]: 24.3 µM
- LDH (U/g) (isolated rat hearts): 17.8 U/g
- EDP (MmHg) (isolated rat hearts): 25.7 MmHg
- LDVP × HR (%) (isolated rat hearts): 55.1%
- TTC (isolated rat hearts): 22.6 min
- LD50 (in vivo): > 1000 mg/kg

SMILES: CCCOC(=O)[C@H]1Cc2ccccc2N1[C@@H]1c2cc([N+](=O)[O-])ccc2O[C@@](C)(C(OC)OC)[C@H]1O [Example 34, 1[-(2R, 3S, 4R)-3,4-dihydro-2-dimethoxymethyl-3-hydroxy-2-methyl-6-nitro-2H-1-benzopyran-4-yl]-(2R)-2,3-dihydro-1H-indole-2-carboxylic acid n-propyl ester]
- LD50 (in vivo): > 1000 mg/kg

SMILES: COC(OC)[C@@]1(C)Oc2ccc([N+](=O)[O-])cc2[C@H](N2c3ccccc3C[C@H]2C(=O)OC(C)C)[C@H]1O [Example 10, 1-[(2S, 3R, 4S)-3,4-dihydro-2-dimethoxymethyl-3-hydroxy-2-methyl-6-nitro-2H-1-benzopyran-4-yl]-(2S)-2,3-dihydro-1H-indole-2-carboxylic acid isopropyl ester]
- LD50 (in vivo): > 1000 mg/kg

SMILES: CCOC(=O)[C@H]1Cc2ccccc2N1[C@@H]1c2cc([N+](=O)[O-])ccc2O[C@@](C)(C(OC)OC)[C@H]1O [Example 30, 1-[(2R, 3S, 4R)-3,4-dihydro-2-dimethoxymethyl-3-hydroxy-2-methyl-6-nitro-2H-1-benzopyran-4-yl]-(2R)-2,3-dihydro-1H-indole-2-carboxylic acid ethyl ester]
- AAR/LV (%) [2]: 33.6%
- IZ/AAR (%) [2]: 38.9%
- IC50 [3]: > 30 µM
- LDH (U/g) (isolated rat hearts): 9.2 U/g
- EDP (MmHg) (isolated rat hearts): 11.3 MmHg
- LDVP × HR (%) (isolated rat hearts): 64.1%
- TTC (isolated rat hearts): 27.1 min
- LD50 (in vivo): > 1000 mg/kg

Source: US6413983B1, “Benzopyranyl heterocycle derivatives, process for preparation thereof, and pharmaceutical compositions containing them” (Dongbu Hannong Chemical Co. Ltd., priority 2000, dated 2002)
